From ChEMBL document CHEMBL1155992, “Bioisosteric replacement of the hydrazide pharmacophore of the cannabinoid-1 receptor antagonist SR141716A. Part I: potent, orally-active 1,4-disubstituted imidazoles” (Bioorg Med Chem Lett, 2009)

Columns and labels:
Cannabinoid receptor 1 [1] = biological target: Cannabinoid receptor 1 (Rattus norvegicus, UniProt P20272); assay: Displacement of [3H]SR141716A from rat brain CB1 receptor
Cannabinoid receptor 1 [2] = biological target: Cannabinoid receptor 1 (Homo sapiens, UniProt P21554); assay: Antagonist activity at human CB1 receptor transfected in CHO-K1cells by GTPgamma[35S] binding assay; format: functional, cell-based, CHO-K1
Homo sapiens = organism: Homo sapiens; assay: Selectivity index, ratio of Ki for human CB2 receptor to Ki for human CB1 receptor
[3] = Intrinsic clearance in human liver microsomes; format: ADME, Microsome
Mus musculus [4] = assay: Effect on hypothermic activity in CP-55940-induced ICR mouse assessed as reduction in body temperature at 10 mg/kg, ip measured after 65 mins of CP-55940 challenge by tetrad assay; format: functional; design: scale not given: the % may be the effect or the level left; settings: route intraperitoneal
Cytochrome P450 3A4 = Cytochrome P450 3A4 (Homo sapiens, UniProt P08684); assay: Inhibition of CYP3A4; format: ADME
Cytochrome P450 2C19 = Cytochrome P450 2C19 (Homo sapiens, UniProt P33261); assay: Inhibition of CYP2C19; format: ADME
[5] = Volume of distribution in rat at 2 mg/kg, iv; format: ADME, organism-based; design: dose 2 mg/kg, route intravenous; settings: in vivo
Rattus norvegicus [6] = assay: Clearance in rat at 2 mg/kg, iv; format: ADME, organism-based; design: dose 2 mg/kg, route intravenous; settings: in vivo
Cytochrome P450 2D6 = Cytochrome P450 2D6 (Homo sapiens, UniProt P10635); assay: Inhibition of CYP2D6; format: ADME
[7] = Oral bioavailability in rat at 5 mg/kg; format: ADME, organism-based; settings: in vivo
Rattus norvegicus [8] = assay: Antiobesity activity in overnight fasted Sprague-Dawley rat assessed as reduction in food intake in at 3 mg/kg, po; format: functional; design: scale not given: the % may be the effect or the level left
Rattus norvegicus [9] = assay: Antiobesity activity in overnight fasted Sprague-Dawley rat assessed as reduction in food intake in at 10 mg/kg, po; format: functional; design: scale not given: the % may be the effect or the level left
Mus musculus [10] = assay: Analgesic activity in CP-55940-induced ICR mouse assessed as reduction in latency to jump, kick, lick, flick paw at 10 mg/kg, ip by hotplate assay; format: functional; design: scale not given: the % may be the effect or the level left; settings: route intraperitoneal
[11] = Half life in rat at 2 mg/kg, iv; format: ADME, organism-based; design: dose 2 mg/kg, route intravenous; settings: in vivo
Cytochrome P450 1A2 = biological target: T1, Cytochrome P450 1A2 (Homo sapiens, UniProt P05177); assay: Inhibition of CYP1A2; format: ADME
T1 sequence (P05177 whole entry): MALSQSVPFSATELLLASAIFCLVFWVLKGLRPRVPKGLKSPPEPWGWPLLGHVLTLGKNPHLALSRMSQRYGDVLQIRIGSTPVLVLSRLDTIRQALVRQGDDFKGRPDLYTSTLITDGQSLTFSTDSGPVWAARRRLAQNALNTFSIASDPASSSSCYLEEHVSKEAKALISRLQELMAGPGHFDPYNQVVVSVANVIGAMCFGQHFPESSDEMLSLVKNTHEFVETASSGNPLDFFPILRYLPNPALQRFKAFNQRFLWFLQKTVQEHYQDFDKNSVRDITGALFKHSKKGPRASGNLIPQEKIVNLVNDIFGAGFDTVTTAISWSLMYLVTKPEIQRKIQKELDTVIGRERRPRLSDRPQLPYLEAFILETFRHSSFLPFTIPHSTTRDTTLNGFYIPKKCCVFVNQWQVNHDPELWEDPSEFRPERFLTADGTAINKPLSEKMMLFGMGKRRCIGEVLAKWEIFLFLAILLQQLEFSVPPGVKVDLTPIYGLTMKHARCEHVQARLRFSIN

Cytochrome P450 2C9 = Cytochrome P450 2C9 (Homo sapiens, UniProt P11712); assay: Inhibition of CYP2C9; format: ADME
Chain of Cytochrome P450 2C9 (P11712 whole entry): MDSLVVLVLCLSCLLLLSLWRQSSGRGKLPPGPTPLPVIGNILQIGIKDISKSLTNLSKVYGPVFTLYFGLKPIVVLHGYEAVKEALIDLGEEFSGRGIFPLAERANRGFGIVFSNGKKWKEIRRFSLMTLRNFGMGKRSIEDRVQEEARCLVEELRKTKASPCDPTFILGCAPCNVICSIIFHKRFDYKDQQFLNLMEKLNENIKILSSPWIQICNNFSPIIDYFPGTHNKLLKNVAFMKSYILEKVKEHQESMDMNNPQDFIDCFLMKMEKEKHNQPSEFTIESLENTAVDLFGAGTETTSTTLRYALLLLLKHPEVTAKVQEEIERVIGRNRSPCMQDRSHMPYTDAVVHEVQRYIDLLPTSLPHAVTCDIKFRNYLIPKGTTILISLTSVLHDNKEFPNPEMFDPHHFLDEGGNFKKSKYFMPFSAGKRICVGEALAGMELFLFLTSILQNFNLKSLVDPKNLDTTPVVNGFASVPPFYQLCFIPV

Chain of Cannabinoid receptor 1 (Homo sapiens, UniProt P21554) (P21554 whole entry): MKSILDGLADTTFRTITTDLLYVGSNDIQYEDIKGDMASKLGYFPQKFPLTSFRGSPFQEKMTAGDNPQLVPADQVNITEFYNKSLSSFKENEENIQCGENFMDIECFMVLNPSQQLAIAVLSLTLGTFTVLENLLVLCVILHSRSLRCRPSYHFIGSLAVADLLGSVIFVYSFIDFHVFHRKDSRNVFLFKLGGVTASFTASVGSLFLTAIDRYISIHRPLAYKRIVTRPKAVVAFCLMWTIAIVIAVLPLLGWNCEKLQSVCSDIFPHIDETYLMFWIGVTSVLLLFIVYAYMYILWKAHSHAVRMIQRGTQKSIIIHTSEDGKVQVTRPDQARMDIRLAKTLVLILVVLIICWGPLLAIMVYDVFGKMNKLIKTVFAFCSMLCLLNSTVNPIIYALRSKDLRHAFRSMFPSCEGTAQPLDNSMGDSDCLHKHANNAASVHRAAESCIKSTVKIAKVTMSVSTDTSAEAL
Chain of Cannabinoid receptor 1 (Rattus norvegicus, UniProt P20272) (P20272 whole entry): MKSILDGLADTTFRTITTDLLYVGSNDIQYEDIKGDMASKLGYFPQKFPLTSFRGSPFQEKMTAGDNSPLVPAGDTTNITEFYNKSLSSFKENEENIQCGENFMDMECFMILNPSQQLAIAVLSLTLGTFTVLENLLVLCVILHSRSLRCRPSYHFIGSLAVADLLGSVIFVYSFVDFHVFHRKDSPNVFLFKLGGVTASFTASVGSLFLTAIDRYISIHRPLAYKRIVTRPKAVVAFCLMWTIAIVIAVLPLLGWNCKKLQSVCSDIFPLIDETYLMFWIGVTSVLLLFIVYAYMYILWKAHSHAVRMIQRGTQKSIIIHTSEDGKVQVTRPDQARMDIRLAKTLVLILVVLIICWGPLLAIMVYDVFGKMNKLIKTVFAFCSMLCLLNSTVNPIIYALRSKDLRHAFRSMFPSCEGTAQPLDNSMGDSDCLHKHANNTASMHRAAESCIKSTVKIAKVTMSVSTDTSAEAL
Chain of Cytochrome P450 2D6 (P10635 whole entry): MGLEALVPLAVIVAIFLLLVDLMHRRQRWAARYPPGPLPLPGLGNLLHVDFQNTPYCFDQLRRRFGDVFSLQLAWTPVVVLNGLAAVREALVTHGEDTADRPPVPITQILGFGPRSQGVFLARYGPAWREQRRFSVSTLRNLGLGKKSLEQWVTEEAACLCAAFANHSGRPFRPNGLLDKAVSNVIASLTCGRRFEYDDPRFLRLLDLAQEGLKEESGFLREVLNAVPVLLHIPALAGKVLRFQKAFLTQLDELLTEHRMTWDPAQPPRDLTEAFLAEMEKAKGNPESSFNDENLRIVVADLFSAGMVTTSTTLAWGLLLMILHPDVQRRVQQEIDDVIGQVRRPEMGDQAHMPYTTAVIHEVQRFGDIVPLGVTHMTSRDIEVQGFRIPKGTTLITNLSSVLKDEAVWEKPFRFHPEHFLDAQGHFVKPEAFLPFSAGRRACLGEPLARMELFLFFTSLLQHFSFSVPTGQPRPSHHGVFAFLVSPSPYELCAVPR
Chain of Cytochrome P450 2C19 (P33261 whole entry): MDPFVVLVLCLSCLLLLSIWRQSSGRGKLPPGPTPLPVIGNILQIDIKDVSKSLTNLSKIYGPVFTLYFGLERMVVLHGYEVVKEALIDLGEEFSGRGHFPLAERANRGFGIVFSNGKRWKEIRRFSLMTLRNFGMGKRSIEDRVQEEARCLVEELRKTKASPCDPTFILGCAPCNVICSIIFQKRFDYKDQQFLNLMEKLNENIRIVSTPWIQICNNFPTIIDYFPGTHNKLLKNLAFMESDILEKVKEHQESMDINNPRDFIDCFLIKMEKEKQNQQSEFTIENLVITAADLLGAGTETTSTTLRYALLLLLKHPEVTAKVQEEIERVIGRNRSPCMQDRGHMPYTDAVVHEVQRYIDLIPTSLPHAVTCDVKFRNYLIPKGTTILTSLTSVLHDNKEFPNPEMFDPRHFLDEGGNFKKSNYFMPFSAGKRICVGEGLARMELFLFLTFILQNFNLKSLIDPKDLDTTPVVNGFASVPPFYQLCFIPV
Chain of Cytochrome P450 3A4 (P08684 whole entry): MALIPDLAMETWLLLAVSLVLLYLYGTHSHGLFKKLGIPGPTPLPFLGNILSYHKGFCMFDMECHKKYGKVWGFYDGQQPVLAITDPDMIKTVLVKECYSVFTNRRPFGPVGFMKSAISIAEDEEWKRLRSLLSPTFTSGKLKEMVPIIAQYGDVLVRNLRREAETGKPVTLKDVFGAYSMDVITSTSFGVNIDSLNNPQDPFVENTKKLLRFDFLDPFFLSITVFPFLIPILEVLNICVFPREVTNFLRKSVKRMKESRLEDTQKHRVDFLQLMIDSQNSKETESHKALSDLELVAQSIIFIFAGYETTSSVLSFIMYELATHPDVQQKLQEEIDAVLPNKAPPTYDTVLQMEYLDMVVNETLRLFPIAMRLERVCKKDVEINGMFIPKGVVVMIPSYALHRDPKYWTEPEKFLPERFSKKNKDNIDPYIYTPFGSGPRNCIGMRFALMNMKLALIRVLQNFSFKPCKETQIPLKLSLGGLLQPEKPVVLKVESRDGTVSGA

| SMILES | Ki (Cannabinoid receptor 1 [1]) [nM] | Ki (Cannabinoid receptor 1 [2]) [nM] | Ratio Ki (Homo sapiens) | also measured |
| --- | --- | --- | --- | --- |
| Cc1c(-c2ncn(C(C)C)c2C)nn(-c2ccc(Cl)cc2Cl)c1-c1ccc(Cl)cc1 | 5.7 | 9 | > 100 | – |
| Cc1c(-c2cn(C3CCCCC3)cn2)nn(-c2ccc(Cl)cc2Cl)c1-c1ccc(Cl)cc1 | 8.6 | 4.7 | > 100 | – |
| Cc1c(-c2nc[nH]c2C(C)C)nn(-c2ccccc2Cl)c1-c1ccc(Cl)cc1 | 31 | – | > 100 | – |
| Cc1c(-c2cn(Cc3ccccc3)cn2)nn(-c2ccc(Cl)cc2Cl)c1-c1ccc(Cl)cc1 | 14 | – | > 100 | – |
| Cc1c(-c2ncn(C(C)C)c2CO)nn(-c2ccc(Cl)cc2Cl)c1-c1ccc(Cl)cc1 | 19 | – | > 100 | – |
| Cc1c(-c2cn(C(C)(C)c3ccccc3)cn2)nn(-c2ccccc2Cl)c1-c1ccc(Cl)cc1 | 1.1 | 0.1 | > 100 | – |
| Cc1c(-c2cn(-c3ccccc3)cn2)nn(-c2ccccc2Cl)c1-c1ccc(Cl)cc1 | 19 | 3.8 | > 100 | – |
| CCc1c(-c2nn(-c3ccc(Cl)cc3Cl)c(-c3ccc(Cl)cc3)c2C)ncn1C(C)C | 38 | – | > 100 | – |
| Cc1c(-c2cn(C(C)(C)C)cn2)nn(-c2ccc(Cl)cc2Cl)c1-c1ccc(Cl)cc1 | 14 | – | > 100 | – |
| Cc1c(-c2cn(C(C)(C)c3ccccc3)cn2)nn(-c2ccc(Cl)cc2Cl)c1-c1ccc(Cl)cc1 | 1.8 | 0.1 | > 100 | – |
| Cc1c(-c2cn(C3CCOCC3)cn2)nn(-c2ccc(Cl)cc2Cl)c1-c1ccc(Cl)cc1 | 25 | – | > 100 | CLint scaled [3]: < 7 mL/min/kg |
| Cc1c(-c2cn(C3CC3)cn2)nn(-c2ccccc2Cl)c1-c1ccc(Cl)cc1 | 7.4 | 7.9 | > 100 | – |
| Cc1c(-c2ncc(C(C)C)[nH]2)nn(-c2ccc(Cl)cc2Cl)c1-c1ccc(Cl)cc1 | 9.5 | 5.2 | > 100 | CLint scaled [3]: 42.5 mL/min/kg |
| Cc1c(-c2cn(C(C)C)cn2)nn(-c2ccccc2Cl)c1-c1ccc(Cl)cc1 | 5.3 | 7.6 | > 100 | Activity (Mus musculus [4]): 33%; IC50 (Cytochrome P450 3A4): > 10000 nM; IC50 (Cytochrome P450 2C19): > 10000 nM; Vd [5]: 2.5 L/kg; clearance (Rattus norvegicus [6]): 21 mL/min/kg; IC50 (Cytochrome P450 2D6): > 10000 nM; bioavailability [7]: 42%; Activity (Rattus norvegicus [8]): -31%; Activity (Rattus norvegicus [9]): 44%; Activity (Mus musculus [10]): 56%; half-life [11]: 1.5 h; IC50 (Cytochrome P450 1A2): > 10000 nM; IC50 (Cytochrome P450 2C9): > 10000 nM |
| Cc1c(-c2cnc(C(C)C)[nH]2)nn(-c2ccc(Cl)cc2Cl)c1-c1ccc(Cl)cc1 | 7.2 | 9.5 | > 100 | CLint scaled [3]: 42.5 mL/min/kg |
| CCn1cnc(-c2nn(-c3ccc(Cl)cc3Cl)c(-c3ccc(Cl)cc3)c2C)c1 | 20 | – | > 100 | – |
| Cc1c(-c2cn(C3CCC3)cn2)nn(-c2ccc(Cl)cc2Cl)c1-c1ccc(Cl)cc1 | 10 | 5 | > 100 | – |
| Cc1c(-c2cn(C(C)C)cn2)nn(-c2ccc(Cl)cc2Cl)c1-c1ccc(Cl)cc1 | 4.9 | 9 | > 100 | CLint scaled [3]: 14 mL/min/kg |
